Source: patent US10513513B2, “Salts of quinazoline derivative or crystals thereof, and the process for producing thereof” (Shionogi & Co., Ltd., priority 2015, dated 2019)
Where a name gives a salt, the structure may show the parent alone.

Columns and labels:
Format in all cases: physicochemical
[1] = Moisture sorption-desorption isothermal measurement; details: for Ratio of increased mass (moisture sorption): mass increase at 95% Target % P/P0 relative to mass at 0% Target % P/P0, 25° C.; for Ratio of increased mass in moisture desorption isothermal measurement: ratio at 0% Target % P/P0 after desorption, 25° C.
Excerpt: (Moisture Sorption-Desorption Isothermal Measurement)
Moisture sorption-desorption isothermal measurement is measuring the weight changes of a subject solid under various relative humidity conditions, and is a method for determining moisture sorption-desorption behaviors.
As a basic measurement method, the relative humidity is increased in increments of 5% or 10% based on the dry weight at 0% Target % P/P0 (relative humidity 0%), and after the weights at respective relative humidities are stabilized, the amount of adsorbed water can be obtained from the weight increased from a reference value. Similarly, it is possible to measure the amount of desorbed water by reducing the relative humidity in increments of 5% or 10% from 100% Target % P/P0.
Sorption and desorption isotherms can be obtained by plotting the weight change values at respective relative humidities. From the results, it is possible to investigate the sorption and desorption phenomena of attached moisture at respective humidities. Also, when anhydride crystals and hydrate crystals undergo mutual crystal transition due to humidity, it is possible to calculate the humidity, at which crystal transition occurs, and the amount of water of crystallization.
Since the sorption and desorption of attached water and water of crystallization are affected by the particle size, degree of crystallinity, crystal habit, and the like, the measurement results may slightly vary.
Moisture sorption-desorption isothermal measurement was performed on the crystals obtained in each Example. About 10 mg of a sample was weighed onto a sample pan, and measurement was performed. Measurement conditions are as shown below.
Device: DVS Advantage by Surface Measurement Systems Ltd.
Measurement points: from 0% Target % P/P0 to 95% Target % P/P0 in increments of 5%, then from 95% Target % P/P0 to 0% Target % P/P0 in decrements of 5% Temperature: 25° C. […]

[2] = Test of solubility in water for injection; details: stirred at 37° C. for 1 hour, HPLC Method A
Protocol: (Test of Solubility in Water for Injection)
1. Preparation of Calibration Curve
First, 5 mg of monohydrochloride crystal Form I of Compound (I) was precisely weighed and dissolved in a mixed solution of acetonitrile:water (1:1), and thus a 500 μg/mL solution was obtained. The obtained solution was diluted with a mixed solution of acetonitrile:water (1:1) such that the concentrations of the compound were 5 and 50 μg/mL. Accordingly, a standard calibration curve was prepared according to HPLC measurement conditions (Method A). The same operation was carried out for monohydrochloride crystal Form II, monohydrochloride crystal Form V, monohydrochloride crystal Form VI, mono-p-toluenesulfonate crystal Form I, and free base crystals.
2. Preparation of Sample Solution
First, 1 mg of monohydrochloride crystal Form I of Compound (I) was precisely weighed and transferred to a vial having a volume of 4 mL. Then, 1 mL of water (water for injection) was added, and the mixture was stirred at 37° C. for 1 hour. After being stirred, this suspension was filtered, and the peak area was measured under HPLC measurement conditions (Method A) using a solution obtained by diluting the filtrate two-fold with a mixed solution of acetonitrile:water (1:1) as a sample. The concentration was calculated using the peak area and the calibration curve prepared above. The same operation was carried out for monohydrochloride crystal Form II, monohydrochloride crystal Form V, monohydrochloride crystal Form VI, mono-p-toluenesulfonate crystal Form I, and free base crystals.

[3] = Test of solubility in organic solvent; details: stirred at 22° C. for 4 hours, supernatant, HPLC Method B; for Concentration (% by weight) in 2-Propanol: suspended in 2-propanol; for Concentration (% by weight) in Acetone: suspended in acetone; for Concentration (% by weight) in Ethyl acetate: suspended in ethyl acetate
Protocol: (Test of Solubility in Organic Solvent)
The monohydrochloride crystal Form I, monohydrochloride crystal Form V, and free base crystals of Compound (I) were each suspended in 2-propanol, acetone, and ethyl acetate, and stirred at 22° C. for 4 hours, and the concentrations of supernatants were measured (HPLC: Method B).

[4] = Light exposure test (photostability); details: for E isomer (Retention time 38 minutes), Light exposed sample: D65 lamp, total illuminance about 1.2 million lx·hr; for E isomer (Retention time 38 minutes), Light exposed sample / E isomer (Retention time 38 minutes), Dark control: HPLC Method B; for E isomer (Retention time 38 minutes), Increased amount: light exposed sample minus dark control
Excerpt: The photostability test is one of the methods for measuring chemical or physicochemical changes of an active pharmaceutical ingredient or a pharmaceutical preparation caused by light exposure to evaluate properties of a sample with respect to light. In the photostability test, a sample such as an active pharmaceutical ingredient or a pharmaceutical preparation is irradiated with light at a specified output for a certain period of time. Properties of the sample with respect to light can be evaluated by analyzing the impurities and analogous substances, crystal form, color difference, and the like of the sample by scientific techniques (such as high performance liquid chromatography, X-ray crystal diffraction, and colorimetry) when a specified total illuminance is reached. In order to verify that a specified amount of light exposure is attained, the amount of light exposure is managed using a radiometer or a luminometer, and a test is carried out using an actinometric system.
(Photostability Measurement)
A photostability test was performed using a photostability tester (model LTL200A5-15WCD) by Nagano Science. A D65 lamp was used as an irradiation source of light, and light was irradiated to a total illuminance of about 1.2 million 1×·hr under 4000 lx·hr conditions.
The quality evaluations of the respective crystals were carried out using HPLC (Method B).

[5] = Observation of hygroscopicity of isolated salt; details: isolated solid
Protocol: Ethyl acetate (8 mL) was added to Compound 3 (4.12 g, 17.7 mmol), and the mixture was stirred. When 4 mol/L a solution (16 mL) of hydrochloric acid in ethyl acetate was added, white solids were precipitated. Ethyl acetate (8 mL) was added, and then the mixture was stirred for about 4 hours at room temperature.
Benzenesulfonic acid (78.57 mg) and tetrahydrofuran (0.2 mL) were stirred at 50° C., and a tetrahydrofuran (0.2 mL) solution of Compound 3 (51.54 mg, 0.222 mmol) was added dropwise. After about 20 minutes, cooling the mixture to room temperature caused solids to precipitate. Then, 0.15 mL of tetrahydrofuran was added, and the mixture was stirred at 50° C. for 10 minutes and cooled to 10° C.

[6] = Stability test of crystals on heating (NMR before/after); details: heated at 50° C. for 8 hours
Protocol: (Results of Stability Test)
The crystals of Compound (IIA) obtained in Example 21 were heated at 50° C. for 8 hours and measured NMR data.

[7] = listed as Monohydrochloride form crystal V
[8] = listed as mono-p-toluenesulfonate crystal Form I
[9] = listed as Monohydrochloride form crystal VI

Ratio of increased mass in moisture desorption isothermal measurement [1]	Solubility in water for injection [2] [µg/mL]	Concentration (% by weight) in 2-Propanol [3] [% by weight]	Concentration (% by weight) in Acetone [3] [% by weight]	Concentration (% by weight) in Ethyl acetate [3] [% by weight]	Ratio of increased mass (moisture sorption) [1]	E isomer (Retention time 38 minutes), Light exposed sample [4] [area %]	E isomer (Retention time 38 minutes), Dark control [4] [area %]	E isomer (Retention time 38 minutes), Increased amount [4] [area %]	SMILES	further results
about 0.12%	26.6	–	–	–	small	32.86	0.10	32.76	CC#C/C(=N\OC[C@H]1COCCN1)c1ccc2ncnc(Nc3ccc(OCc4cccc(F)c4)c(Cl)c3)c2c1 [Mono-p-toluenesulfonate crystal Form I]	Solubility in water for injection [2, 8]: high solubilities; E isomer (Retention time 38 minutes), Increased amount [4, 8]: about 33 area %
about 0.06%	12.9	–	–	–	small	–	–	–	CC#C/C(=N\OC[C@H]1COCCN1)c1ccc2ncnc(Nc3ccc(OCc4cccc(F)c4)c(Cl)c3)c2c1 [Monohydrochloride crystal Form VI]	Solubility in water for injection ([2]; listed as monohydrochloride crystal Form VI): high solubilities; E isomer (Retention time 38 minutes), Light exposed sample [4, 9]: 1.80 area %; E isomer (Retention time 38 minutes), Dark control [4, 9]: 1.16 area %; E isomer (Retention time 38 minutes), Increased amount [4, 9]: 0.64 area %
about 0.16%	–	0.49	8.1	3.3	–	2.59	–	2.59	CC#C/C(=N\OC[C@H]1COCCN1)c1ccc2ncnc(Nc3ccc(OCc4cccc(F)c4)c(Cl)c3)c2c1 [Free base crystal]	Solubility in water for injection ([2]; listed as free base crystals): not dissolved in water for injection at all
about 0.08%	34.5	0.03	0.08	0.01	small	4.41	0.63	3.78	CC#C/C(=N\OC[C@H]1COCCN1)c1ccc2ncnc(Nc3ccc(OCc4cccc(F)c4)c(Cl)c3)c2c1 [Monohydrochloride crystal Form I]	Solubility in water for injection ([2]; listed as monohydrochloride crystal Form I): high solubilities
about 0.05%	56.0	–	–	–	small	1.21	1.44	−0.23	CC#C/C(=N\OC[C@H]1COCCN1)c1ccc2ncnc(Nc3ccc(OCc4cccc(F)c4)c(Cl)c3)c2c1 [Monohydrochloride crystal Form II]	Solubility in water for injection ([2]; listed as monohydrochloride crystal Form II): high solubilities

Further lines, the molecule ahead of its results:

SMILES	Ratio of increased mass in moisture desorption isothermal measurement [1]	Solubility in water for injection [2] [µg/mL]	Concentration (% by weight) in 2-Propanol [3] [% by weight]	Concentration (% by weight) in Acetone [3] [% by weight]	Concentration (% by weight) in Ethyl acetate [3] [% by weight]	Ratio of increased mass (moisture sorption) [1]	E isomer (Retention time 38 minutes), Light exposed sample [4] [area %]	E isomer (Retention time 38 minutes), Dark control [4] [area %]	E isomer (Retention time 38 minutes), Increased amount [4] [area %]	further results
CC#C/C(=N\OC[C@H]1COCCN1)c1ccc2ncnc(Nc3ccc(OCc4cccc(F)c4)c(Cl)c3)c2c1 [Monosulfate crystal]	about 0.13%	–	–	–	–	–	–	–	–	Ratio of increased mass (moisture sorption) ([1]; listed as monosulfate crystals): about 3.3%
CC#C/C(=N\OC[C@H]1COCCN1)c1ccc2ncnc(Nc3ccc(OCc4cccc(F)c4)c(Cl)c3)c2c1 [Monohydrochloride crystal Form V]	about 0.05%	14.0	0.01	0.02	0.00	small	–	–	–	Solubility in water for injection ([2]; listed as monohydrochloride crystal Form V): high solubilities; E isomer (Retention time 38 minutes), Light exposed sample [4, 7]: 1.19 area %; E isomer (Retention time 38 minutes), Dark control [4, 7]: 0.13 area %; E isomer (Retention time 38 minutes), Increased amount [4, 7]: 1.06 area %
NOC[C@H]1COCCN1 [Compound (II″)]	–	–	–	–	–	–	–	–	–	Hygroscopicity (observation) [5]: highly hygroscopic
NOC[C@H]1COCCN1 [Compound (IIA)]	–	–	–	–	–	–	–	–	–	Stability of crystals on heating (change of NMR peaks) [6]: no changes to the peaks were observed
NOC[C@H]1COCCN1 [Compound (II′)]	–	–	–	–	–	–	–	–	–	Hygroscopicity (observation) [5]: absorbed moisture and deliquesced
